This passage reports IC50 results from PubChem BioAssay AID2305 (GlaxoSmithKline (GSK), 2010).

As a reminder, the IC50 is the concentration at which inhibition is half-maximal. Higher therefore signals a need for much substance.

Structures are written as SMILES. Several values for one entry are separate records, joined by “and”; a condition that tells them apart may be missing. Equal entries are not always repeated.

The test system of the experiment is P. falciparum 3D7 growth, pLDH absorbance. As to the kind of experiment: blood-stage malaria parasite growth potency – strain 3D7, dose response (AID 2305).
Compound `CCCCOc1ccc(-c2nc3ccccc3[nH]2)cc1` returned an IC50 of 870 nM. That is a sub-micromolar value.
Turning to `CCCCOc1ccccc1C(=O)NCc1csc(-c2ccccc2)n1`, the IC50 stood at 560 nM.
In the case of `CC1(C)N=C(N)NC(NOCc2ccc(Cl)c(Cl)c2)=N1` it was 230 nM; in that of `CC(C)(C)c1nn(-c2ccc(Cl)cc2)c2[nH]c(=O)c(CNCc3cccs3)cc12`, 760 nM; in that of `CCCCCCC(C)c1cc(O)c2c(c1)OC(C)(C)c1ccncc1-2` (centres undefined), 800 nM.
In the case of `COC(=O)c1cccc(CNCc2ccc(-c3cccc(-c4nc5c(C)cccc5[nH]4)c3)cc2)c1` it was 310 nM; in that of `COc1cccc(CC(=O)N2CCC(n3c(C)nc4ccc(C)cc43)CC2)c1`, 110 nM; in that of `N#Cc1cncc(-c2nc3c(N4CCCC(N)C4)cccc3n2CCNCc2ccccc2)c1` (centres undefined), 770 nM.
As to `NC1CCN(Cc2ccc(-c3cccc(-c4nc5ccccc5[nH]4)c3)cc2)C1` (centres undefined), the IC50 stood at 850 nM.
`COc1ccc(CNc2nc(NCc3ccc(C(F)(F)F)cc3)c3cc(OC)c(OC)cc3n2)cc1OC` came in with an IC50 of 210 nM.
`Nc1nc(-c2ccccn2)nc(-n2nc(-c3cccc(C(F)(F)F)c3)cc2N)n1` yielded an IC50 of 1040 nM. This IC50 is about 5-fold higher than that of the compound before.
For the compound `CCNc1cc(C(=O)N[C@@H](Cc2ccoc2)[C@H](O)CNC(C)CCCC(C)C)cc(N2CCCCS2(=O)=O)c1` (some centres undefined), the IC50 stood at 620 nM.
`Cn1c(Sc2ncnc3sccc23)nc2ccccc21` yielded an IC50 of 190 nM.
`C=CCOc1ccc(C2C(C(=O)OC)=C(C)NC3=C2C(=O)c2ccccc23)cc1OC` (centres undefined) displayed an IC50 of 880 nM.
`O=C(CN1CCN(C(=O)c2ccco2)CC1)Nc1ccccc1Br` had an IC50 of 560 nM.
In the case of `CN(C)CCCOc1ccc(CNCC(C)(C)c2nc(-c3ccc(Cl)c(O)c3)c(-c3ccncc3)[nH]2)cc1`, the IC50 worked out at 710 nM. This IC50 and that of the compound before are within 1.5-fold of each other.
The compound `Cc1[nH]c(C)c(-c2ccc(Oc3ccc(F)cc3)cc2)c(=O)c1Cl` displayed an IC50 of 50 nM.
The compound `Cc1ccccc1C1CCN(C2CCC(NC(=O)c3ccc(-c4cccs4)s3)CC2)CC1` (centres undefined) registered an IC50 of 1030 nM.
The compound `Cc1ccc(C(=O)NCC2CCN(c3ccc(C(F)(F)F)cc3NC(=O)c3ccco3)CC2)cn1` registered an IC50 of 780 nM.
In the case of `Fc1cccc(COc2ccc(Nc3ncnc4sc(C#CC5CCCCN5)cc34)cc2Cl)c1` (centres undefined) it was 540 nM.
`CC(C)CNCc1ccc(-c2cccc(CNc3ccc4ncccc4c3)c2)cc1` yielded an IC50 of 910 nM.
Under `O=C(Nc1cccc(Cl)c1Cl)Nc1ccnc2ccccc12` stands 750 nM; under `N#Cc1cccc(C(=O)Nc2ccc(-c3nc4ccccc4[nH]3)cc2)c1`, 540 nM; under `O=c1sn(-c2csc3ccccc23)c2ccccc12`, 340 nM.
In the case of `CCOC(=O)c1[nH]c(-c2ccccc2)nc1NC(=S)NC1CCCCC1` it was 840 nM.
In the case of `Cc1noc(C)c1CN1Cc2ccccc2OC2(CCN(Cc3c[nH]c4cnccc34)CC2)C1`, the IC50 turned out to be 1070 nM.
`Cc1cccc2[nH]c(-c3ccc(-c4ccc(CNCCCN5CCCC5=O)cc4)s3)nc12` showed an IC50 of 750 nM.
On to `Cc1c(Cl)cccc1S(=O)(=O)N1CCCCC(c2ccc(C(F)(F)F)cc2)=N1`, for which the IC50 came to 790 nM.
`CN1CCN(c2ccc(-c3cccc(NC(=O)c4ccc5ccccc5c4)c3)nn2)CC1` displayed an IC50 of 380 nM.
With `O=C(/C=C/c1ccc(Cl)cc1)NC1CCC(CN2CCC(c3c[nH]c4ccccc34)CC2)CC1` (centres undefined), the IC50 was 800 nM and 730 nM.
`Cc1ccc(O)cc1Nc1ccnc2cc(-c3ccccn3)ccc12` registered an IC50 of 760 nM.
In the case of `CC(C)(C)S[C@H]1S[C@H](SC(C)(C)C)[C@@H](OC(=O)c2ccccc2)C(OC(=O)c2ccccc2)[C@H]1OC(=O)c1ccccc1` (some centres undefined), the IC50 worked out at 940 nM. The IC50 values of the last two compounds are within 1.5-fold of each other.
In the case of `CCC(CC(NCCCCNC(=O)c1ccc(NC(=O)c2ccc(Cl)cc2)cc1)c1ccccc1)c1ccccc1OC` (centres undefined) it was 670 nM and 790 nM.
Compound `COc1cccc(C(=O)Nc2ccc(-c3nc4ccccc4[nH]3)cc2)c1` yielded an IC50 of 800 nM. That is a sub-micromolar value.
In turn, `COc1cc(NC(=O)/C=C/c2ccccc2OC(F)(F)F)cc(OCCN2CCN(CCN3CCOCC3)CC2)c1` showed an IC50 of 160 nM.
`Cc1ccc(NC(=O)c2ccc(CN3CCCN(CC4CCCCC4)CC3)cc2)cc1` registered an IC50 of 800 nM.
In turn, `NS(=O)(=O)c1cccc(Nc2nccc(-c3cnn4ncccc34)n2)c1` had an IC50 of 660 nM.
In the case of `CCc1c(C)nc(-n2nc(C)cc2NC(=O)C2c3ccccc3Oc3ccccc32)[nH]c1=O` it was 950 nM; in that of `CC1CN(Cc2ccc(-c3ccc(-c4nc5ccccc5[nH]4)cc3)cc2)CC(C)O1` (centres undefined), 520 nM; in that of `CCCc1cc(NC2CCN(C)CC2)nc(Nc2ccc(C)cc2)n1`, 900 nM.
In the case of `Cc1cccc(C(=O)Nc2ccnc(N3CCC(N(C)Cc4ccccc4)CC3)c2)c1`, the concentration for half-maximal inhibition (IC50) came to 960 nM.
The compound `COc1ccc(O)c(C(=O)c2cc(C(=O)NCCc3ccccc3)c(=O)n(CCc3ccccc3)c2)c1` returned an IC50 of 1010 nM.
With `O=C(/C=C/c1ccc(C(F)(F)F)cc1)NCCCCCN1CCN(C(=O)Nc2ccc(Cl)cc2)CC1`, the IC50 stood at 1010 nM. This lies in the single-digit micromolar range.
In the case of `Cc1nc(-c2ccc(-c3ccc(C(=O)Nc4ccc(-n5ccnc5)c(N5CCN(C)CC5)c4)cc3)c(C)c2)no1` it was 830 nM; in that of `CCOC(=O)c1[nH]c(-c2ccc(Cl)cc2)nc1NC(=S)NCCCN1CCOCC1`, 870 nM; in that of `N#Cc1ccc(N(CC(=O)NCCc2ccccc2)CC2CC2)c2ccccc12`, 730 nM.
Under `O=C(Nc1ccc([N+](=O)[O-])cc1)Nc1nc2ccc(Cl)cc2s1` stands 840 nM; under `Cc1onc(-c2c(Cl)cccc2Cl)c1C(=O)NC1=NC(C)(C)ON1c1ccccc1`, 1070 nM.
The compound `COc1ccc(CNCc2ccc(F)cc2)cc1-c1cccc(S(=O)(=O)NCCN2CCCC2)c1` registered an IC50 of 800 nM. This IC50 and that of the compound before are within 1.5-fold of each other.
Compound `Cc1cc(N[C@@H](CC(C)C)C(=O)NCCc2ccccc2)nc(NCCc2ccc(F)cc2)n1` returned an IC50 of 770 nM.
With `Cc1[nH]c2ccc(O)cc2c1C1CCN(CC2CCC(NC(=O)/C=C/c3ccc(Cl)c(Cl)c3)CC2)CC1` (centres undefined), the IC50 was 760 nM.
`Clc1ccc(OCCC2CCN(CCCCCCCN3CCC(CCOc4ccc(Cl)c(Cl)c4)CC3)CC2)cc1Cl` showed an IC50 of 620 nM.
On to `Cc1nc2nc(N)nc(N)c2c(C)c1Cc1ccc(C#N)cc1`, for which the IC50 came to 540 nM.
With `N=C(N)c1ccc(OCc2cccc(COc3ccc(C(=N)N)cc3I)c2)c(I)c1`, the IC50 turned out to be 340 nM. This IC50 is about 1.6-fold lower than that of the compound before.
`CC(C)COc1ccc(Cl)cc1Cc1ccc(-c2nc3ccc(Cl)cc3[nH]2)o1`: the IC50 was determined as 930 nM.
Turning to `CN(C)CCNCc1ccc(-c2ccc3c(Nc4ccc(Cl)cc4F)ccnc3c2)o1`, the IC50 amounted to 210 nM.
For the compound `Cc1noc(C)c1-c1ccc2c(Nc3nccc4ccccc34)c(C(N)=O)cnc2c1`, the IC50 is 890 nM.
For `NC(=O)CCC(NC(=O)CNC(=O)Nc1cccc(C(F)(F)F)c1)C(=O)O` (centres undefined), the IC50 is 800 nM.
As for `Nc1ncc(-c2cccc(F)c2)cc1-c1nc2ccc(F)cc2[nH]1`, the IC50 was 180 nM.
`CN(C)CCn1c(N)c(-c2nc3ccccc3s2)c2nc(C#N)c(C#N)nc21` displayed an IC50 of 1010 nM.
In turn, `O=[N+]([O-])c1cccc(NC(=S)N2CCCN(Cc3ccc(F)cc3F)CC2)c1` registered an IC50 of 830 nM. This IC50 and that of the compound before are within 1.5-fold of each other.
The compound `NCc1ccc(CNCc2cccc(-c3ccc(-c4nc5ccc(C(F)(F)F)cc5[nH]4)cc3)c2)cc1` gave an IC50 of 260 nM. This IC50 lies about 3.2-fold lower than the previous one.
`Nc1ncc(-c2ccsc2)c2ccc(-c3ccc4cn[nH]c4c3)cc12` yielded an IC50 of 810 nM.
In the case of `COc1cccc(-c2ccc(C(=O)NCC3CCCN(Cc4cccc(C(F)(F)F)c4)C3)s2)c1` (centres undefined) it was 1140 nM; in that of `CC(C)NCc1cc(Nc2ccnc3cc(Cl)ccc23)ccc1O`, 20 nM.
The compound `Cc1ccc(-c2nc3ccc(C(=O)NC4CCN(Cc5ccccc5)CC4)cc3[nH]2)cc1` yielded an IC50 of 740 nM.
The compound `CCOc1ccc2c(NN=Cc3ccc(F)cc3)cc(C)nc2c1` registered an IC50 of 580 nM.
`CC(=O)Oc1cc(C)ccc1C1CCN(CCCCNC(=O)c2ccc(-c3ccc(C(F)(F)F)cc3)cc2)CC1` registered an IC50 of 650 nM.
In the case of `Cc1ccccc1C1CCN(C2CCC(NC(=O)/C=C/c3cccc(C(F)(F)F)c3)CC2)CC1` (centres undefined), the IC50 amounted to 1520 nM.
As for `COc1ccc(C(C)Nc2nc(N)c3cc(OC)c(OC)cc3n2)cc1` (centres undefined), the IC50 stood at 940 nM.
Turning to `CC(C)(C)c1ccc(CN2CCCCC(NC(=O)c3cc(-c4ccccc4Cl)cs3)C2)cc1` (centres undefined), the IC50 stood at 1120 nM.
In turn, `O=C(NC1CCN(Cc2ccccc2)CC1)c1ccc(-c2nc3cc(F)c(F)cc3[nH]2)s1` came in with an IC50 of 830 nM.
For `Cc1ccccc1C1CCN(C2CCC(NC(=O)C3=Cc4cc(Cl)ccc4OC3)CC2)CC1` (centres undefined), the IC50 came out at 890 nM.
Under `COc1ccc(NC(=O)/C=C/c2ccc(Cl)c(C(F)(F)F)c2)cc1OCCN(C(C)C)C(C)C` stands 630 nM.
Take `C/C=C1\CN2CC[C@H]1C[C@@H]2[C@@H](O)c1ccnc2ccc(O)cc12`: the IC50 was found to be 250 nM.
Take `CC(C)CCN1CCC(Oc2cccc(NC(=O)c3ccc(C(F)(F)F)cc3)c2)CC1`: the IC50 stood at 630 nM.
The compound `COc1cc(OC)cc(C(=O)Nc2cccc(-c3cn4ccc(C)cc4n3)c2)c1` came in with an IC50 of 990 nM. Against the preceding compound, the IC50 is about 1.6-fold higher.
In turn, `CS(=O)(=O)Nc1ccc2[nH]cc(C3CCN(CC4CCC(NC(=O)/C=C/c5ccc(Cl)c(Cl)c5)CC4)CC3)c2c1` (centres undefined) came in with an IC50 of 850 nM.
`O=C(Cc1ccc(Cl)cc1)NC1CCN(c2ccnc3cc(Cl)ccc23)C1` (centres undefined) registered an IC50 of 230 nM. Against the preceding compound, the IC50 is about 3.7-fold lower.
Compound `CCN(CCCN1CCCCC1)c1cc(C)nc(Nc2ccc3c(c2)CCC3)n1` came in with an IC50 of 390 nM.
Consider `CN1CCN(CCCN(Cc2ccc(-c3cccc(CNC4CCCC4)c3)cc2)C(=O)/C=C/c2ccccc2)CC1`, for which the IC50 stood at 1330 nM.
In the case of `CN(Cc1cccc(O)c1)C1CCN(c2cc(NC(=O)c3ccc(F)cc3)ccn2)C1` (centres undefined), the IC50 came out at 1150 nM.
In the case of `CC(C)(C)c1ccc(NC(=O)c2cccc(CN3CCCN(Cc4cccc(C#N)c4)CC3)c2)cc1`, the IC50 was determined as 760 nM.
In the case of `C=C[C@H]1CN(CCCCCCC)CC[C@H]1C[C@@H](Cc1ccnc2ccc(OC)cc12)OC(=O)[C@](OC)(c1ccccc1)C(F)(F)F`, the IC50 turned out to be 880 nM.
Under `Cc1cc(NCc2ccccc2)nc2cc(O)ccc12` stands 780 nM; under `O=C(Nc1ccc(N2CCCN(Cc3cccc(F)c3)CC2)cc1)c1cccs1`, 550 nM; under `Cc1cc(=O)c2cc(-c3ccc(OC(F)(F)F)cc3)ccc2[nH]1`, 480 nM.
`CCC(CC)CN1C(=O)C(c2ccccc2)(c2ccccc2)N=C1N` had an IC50 of 970 nM. This IC50 is about 2-fold higher than that of the compound before.
In the case of `Fc1ccc2nccc(NN=Cc3ccccc3Cl)c2c1`, the IC50 turned out to be 920 nM. This IC50 and that of the compound before are within 1.5-fold of each other.
